These results are taken from PMC12371036 (Nature Communications, 2025).

The target of assay [1] is UVR8 (UV RESISTANCE LOCUS8) (Arabidopsis thaliana, UniProt Q9FN03). Kind of assay: MST. In kind it is binding.
Assay [2] deals with T1, UVR8^D96N/D107N (constitutive monomer) (Arabidopsis thaliana, UniProt Q9FN03, D96N/D107N).
T1 sequence (Q9FN03 1-440 D96N/D107N): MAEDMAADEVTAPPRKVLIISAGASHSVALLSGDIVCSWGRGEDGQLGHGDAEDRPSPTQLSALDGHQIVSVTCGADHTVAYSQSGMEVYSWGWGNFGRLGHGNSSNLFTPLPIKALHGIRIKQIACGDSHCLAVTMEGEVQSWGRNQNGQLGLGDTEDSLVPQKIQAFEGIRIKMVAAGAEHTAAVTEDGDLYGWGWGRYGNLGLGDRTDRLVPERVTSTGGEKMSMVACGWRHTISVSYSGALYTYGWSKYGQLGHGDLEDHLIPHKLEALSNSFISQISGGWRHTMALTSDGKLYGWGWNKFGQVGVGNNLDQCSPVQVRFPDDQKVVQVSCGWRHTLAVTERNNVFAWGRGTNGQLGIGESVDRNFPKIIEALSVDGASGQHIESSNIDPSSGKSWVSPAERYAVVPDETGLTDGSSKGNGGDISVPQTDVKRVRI
The experiment in a line: nanoDSF Tm increase with purified recombinant protein. It is filed as binding. (In DSF a fluorescence change marks the thermal transition of the protein.)

Assay [3] concerns the target T2, His-SUMO-UVR8 (wild-type UV … LOCUS8) (Arabidopsis thaliana), Q9FN03.
T2 chain: T1 sequence (Q9FN03 1-440 D96N/D107N) with N96D, N107D
Kind of assay: SEC. Particulars: remark: other sources report otherwise.

Substitutions are numbered along the chain they refer to.

The Kd is the free concentration of one partner at which half of the binding sites on the other are occupied at equilibrium, for simple one-to-one binding. Broadly, the stoichiometry N is the number of molecules, sites or subunits per partner or assembly.

Chain of UVR8 (UV RESISTANCE LOCUS8) (Q9FN03 whole entry): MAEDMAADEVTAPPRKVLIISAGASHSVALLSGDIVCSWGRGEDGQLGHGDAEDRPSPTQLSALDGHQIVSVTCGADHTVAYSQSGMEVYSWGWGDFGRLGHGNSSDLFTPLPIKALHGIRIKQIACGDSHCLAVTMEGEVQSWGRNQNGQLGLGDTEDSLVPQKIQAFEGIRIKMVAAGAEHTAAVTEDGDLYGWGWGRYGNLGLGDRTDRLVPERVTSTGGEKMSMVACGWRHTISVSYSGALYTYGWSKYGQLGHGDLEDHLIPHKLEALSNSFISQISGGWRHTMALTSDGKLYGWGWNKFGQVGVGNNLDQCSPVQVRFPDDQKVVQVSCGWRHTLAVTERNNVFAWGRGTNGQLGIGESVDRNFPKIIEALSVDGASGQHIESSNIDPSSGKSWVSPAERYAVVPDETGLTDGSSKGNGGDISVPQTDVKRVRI

Take `O=C(/C=C/c1ccc(O)cc1)c1c(O)cc(O)cc1O` [NGC, naringenin chalcone]: the Kd in assay [1] is roughly 12 µM. The “nanoDSF Tm increase with purified recombinant protein” value in assay [2] is “significant increase in Tm was observed when NGC was incubated with the three monomeric forms”.

B1: His-SUMO-UVR8 (wild-type UV … LOCUS8), Q9FN03 1-440 (natural protein)
chain: T1 sequence (Q9FN03 1-440 D96N/D107N) with N96D, N107D
In assay [3], B1 showed a stoichiometry N of 2.
